SMILES strings stand for the structures.

The results in this text go back to patent publication EP4692059A1, “CATIONIC LIPID HAVING DISULFIDE BOND” (Tohoku University, priority 2023, dated 2024).

Data set [1] is described as follows: Measurement of Liposomal pKa (TNS fluorescence, LNP without nucleic acid). To be noted: cationic lipid:DOPC:Chol = 52.5:7.5:40 (molar ratio) + DMG-PEG2k about 1.5 mol, pH at which the relative fluorescence intensity was 50%.
Experimental: Lipid nano particles (LNP) without containing nucleic acid were used for the evaluation of Liposomal pKa.
To the obtained mixture was further added DMG-PEG2k (2 mM ethanol solution) in an amount of about 1.5 mol with respect to the total amount 100 mol of cationic lipid, DOPC, and Chol, and then ethanol was added to prepare an ethanol solution of the lipid (total amount: 360 µL).
An acidic malic acid buffer (20 mM, pH 3.0) (1080 µL) containing NaCl at a final concentration of 30 mM and an ethanol solution (360 µL) of lipid were each weighed in a syringe. Using an ultra high-speed nanomedicament producing apparatus NanoAssmblr (manufactured by Precision NanoSystems), LNP was prepared under the conditions of addition rate of acidic buffer solution: 3 mL/min, addition rate of ethanol solution of lipid: 1 mL/min, and syringe holder temperature: 25°C, and collected in a 15 mL tube. […]
20 mM Citrate buffer, sodium phosphate buffer, and tris HCl buffer, each containing NaCl at a final concentration of 150 mM and adjusted to various pHs within the range of pH 3.0 to 10.0, were prepared. […] The relative fluorescence intensity was calculated as a percentage, with the maximum value of the fluorescence intensity in each LNP being 100% and the minimum value being 0%.
Data set [2] can be described thus: Particle size, PdI and zeta potential of mRNA-encapsulating LNPs by dynamic light scattering (Experimental Example 2). In kind it is physicochemical. The note with it: mRNA-encapsulating LNP, cationic lipid:DOPC:Chol = 50:10:40 (molar ratio) + DMG-PEG2k about 1 mol. The protocol: An acidic buffer solution (total amount: 1080 µL) of nucleic acid was prepared by weighing 7.2 µg of mRNA solution (0.6 mg/mL) in a 5 mL tube and adding acidic malate buffer (20 mM, pH 3.0).
An acidic buffer solution of nucleic acid and an ethanol solution of lipid were each weighed in a syringe.
The particle size, PdI (Polydispersity Index), and zeta potential of the mRNA-encapsulating LNP prepared by the method of the above-mentioned 1 were measured by a dynamic light scattering method (Zetasizer Nano; Malvern).

Another data set concerns mouse red blood cells. Description: Hemolysis activity (membrane fusion ability) at pH 7.4 and 5.5 (Experimental Example 5). The data set is classed as cell-based, ICR mice. The procedure: LNPs encapsulating mRNA that expresses luciferase (cationic lipid:DOPC:Chol:DMG-PEG2k=52.5:7.5:40:1.5 (molar ratio)) were prepared using the method described in [Experimental Example 2] 1. As cationic lipid, the cationic lipid of Comparative Example, compound 9, compound 14, compound 27, compound 33, or compound 42 was used.
The collected blood was immediately mixed with 1.0 µL of heparin solution (5000 U/5 mL). About 9 mL of PBS was added to the blood to make the total volume 10 mL. The mixture was then mixed by inversion and centrifuged (4°C, 400 g, 10 min). The supernatant containing plasma components was removed using a Pasteur pipette. About 9 mL of PBS was added to the blood cell components to make the total volume 10 mL, and the mixture was centrifuged again. A similar washing procedure was repeated 4 times to obtain mouse red blood cells.
2, 4, 6, 8, and 10 µL of mouse red blood cells were weighed and diluted with PBS containing 1 w/v% Triton-X100. The entire diluted solution was transferred to a clear 96-well plate, and the absorbance at 545 nm was measured using a plate reader. A calibration curve was created using these samples, and the point where the absorbance reached 1 was determined as the amount of blood cells to be used in the hemolysis assay. Empty LNP solution was weighed into an Eppendorf tube and diluted with malic acid-PBS buffer (pH 5.5, pH 7.4), followed by addition of mouse red blood cells. The final lipid concentration was 100 µM at pH 7.4 and 33.3 µM at pH 5.5, and the final volume of the solution was 250 µL. Each tube was shaken at 1900 rpm for 15 min. Each sample was centrifuged under centrifugation conditions (4°C, 400 g, 5 min), and 100 µL of the supernatant was transferred to a clear 96-well plate and the absorbance at 545 nm was measured. Untreated red blood cells were used as the negative control. […] The hemolysis activity of each sample was calculated using the following formula: Hemolysis activity (%) = 100×(absorbance of each sample - absorbance of negative control)/(absorbance of positive control - absorbance of negative control).

Another data set deals with HeLa cells. Description: In vitro gene expression in HeLa cells (luciferase mRNA-encapsulating LNP, cumulative luminescence in 24 hr).
Another data set has as its system liver. The experiment in a line: In vivo gene expression, luciferase luminescence in the liver after tail vein administration (Experimental Example 4). To be noted: BALB/c mouse, mRNA 0.05 mg/kg. The protocol:
LNP encapsulating mRNA that expresses luciferase (cationic lipid:DOPC:Chol:DMG-PEG2k = 52.5:7.5:40:1.5 (molar ratio)) was prepared by the method described in [Experimental Example 2], 1.
The prepared each mRNA-encapsulating LNP dispersion was administered from the tail vein of BALB/c mouse (male, 5-week-old). The dose of mRNA was set to 0.05 mg per 1 kg body weight of the mouse, and the dose of the mRNA-encapsulating LNP dispersion was set to 10 µL per 1 g body weight of the mouse. After 4.5 hr from the administration of the mRNA-encapsulating LNP dispersion, a PBS solution of D-luciferin potassium was administered into the abdominal cavity of the mouse. The dose of D-luciferin potassium was set to 3 mg per mouse, and the dose of the PBS solution of D-luciferin potassium was set to 200 µL per mouse. After 15 min from the administration of the PBS solution of D-luciferin potassium, the mouse was euthanized, and the liver was isolated. The luminescence in the liver was quantified using an in vivo imaging system (IVIS) with an exposure of 10 sec. The amount of luminescence in the liver was quantified by image analysis using Live Imaging software attached to IVIS. The amount of luminescence (photons/sec) was calculated from the acquired image and used as an index of gene expression activity. The cationic lipids used, the luminescence intensity in the liver, and the relative luminescence intensity (= luminescence intensity in the liver when cationic lipid of Example was used/luminescence intensity in the liver when cationic lipid of Comparative Example was used) are shown in Table 7-1 to Table 7-3. "E+0a" (a: integer) indicated in Table 7-1 to Table 7-3 means "10^a". For example, "3.94E+09" means "3.94×10^9". […]

Experimental for HeLa cells: LNP encapsulating mRNA that expresses luciferase (cationic lipid:DOPC:Chol:DMG-PEG2k = 50:10:40:1 (molar ratio)) was prepared by the method described in [Experimental Example 2], 1.
HeLa cells, which are human cervical cancer cells, were seeded in a 3.5 cm dish at 5.0×10^4 cells/2 mL/Dish 24 hours before transfection. After 24 hr, the medium was changed to a culture medium (D-MEM) containing 0.1 mM D-luciferin. The prepared mRNA-encapsulating LNP was diluted with PBS to an mRNA concentration of about 1 µg/mL. The diluted mRNA-encapsulating LNP solution (about 200 µL, mRNA: 0.2 µg) was added to a 3.5 cm dish, and set in an incubator luminometer KronosDio. The luminescence intensity of luciferase was measured for 2 min every one hour. The cumulative luciferase luminescence intensity in 24 hr was calculated from the obtained time change of expression. […] In Comparative Example, the cationic lipid described in Table 2 was used.

On to `CCCCCCCC/C=C\CCCCCCCC(=O)O[C@H](C/C=C\CCCCCCCC(=O)Oc1ccc(CC(=O)OCCC2CCN(CCSSCCN3CCC(CCOC(=O)Cc4ccc(OC(=O)CCCCCCC/C=C\C[C@H](CCCCCC)OC(=O)CCCCCCC/C=C\CCCCCCCC)cc4)CC3)CC2)cc1)CCCCCC` [compound 4], for which, in data set [1], the “Liposomal pKa” value was 6.25.

For the molecule `CCCCCCCC/C=C\CCCCCCCC(=O)Oc1ccc(CC(=O)OCCC2CCN(CCSSCCN3CCC(CCOC(=O)Cc4ccc(OC(=O)CCCC(=O)OC[C@H](COC(=O)CCCCCC)OC(=O)CCCCCC)cc4)CC3)CC2)cc1` [compound 14], in data set [2] (Polydispersity Index, dynamic light scattering), the PdI is listed as 0.073. For the same molecule, in data set [2] (Zetasizer Nano), the “zeta potential (mV)” value is recorded as -2.80 mV. The “particle size (nm)” value in data set [2] (dynamic light scattering) stood at 92.18 nm. Further, the hemolysis activity entry with mouse red blood cells (pH of the endosomal environment (5.5), final lipid concentration 33.3 µM, Fig. 2, versus LNP of Comparative Example) is on record as “superior hemolysis activity compared to LNP containing the cationic lipid of Comparative Example”; with mouse red blood cells (physiological pH (7.4), final lipid concentration 100 µM, Fig. 1), “did not exhibit hemolysis activity”. For the same molecule, in the data set with HeLa cells (LNP cationic lipid:DOPC:Chol:DMG-PEG2k = 50:10:40:1, mRNA 0.2 µg per dish, E+0a means 10^a), the “cumulative luciferase luminescence intensity (RLU) in 24 hr” value is on record as 1.56E+08 RLU. For the same molecule, the relative luminescence intensity in the data set on HeLa cells (cumulative intensity in 24 hr relative to cationic lipid of Comparative Example) turned out to be 8.44. Moreover, in the data set on liver (tail vein, 4.5 hr after administration, LNP cationic lipid:DOPC:Chol:DMG-PEG2k = 52.5:7.5:40:1.5, prepared as in Experimental Example 2), the “amount of luminescence (photons/sec) in liver” value stood at 6.12E+09 photons/sec. Moreover, the “relative amount of luminescence” value in the data set with liver (liver luminescence relative to cationic lipid of Comparative Example) amounted to 4.03.
